From patent US6538112B2, “Hybridomas and monoclonal antibodies for an anticoagulant test” (Merck & Co., Inc., priority 1997, dated 2003)
Entries after “also recorded” stand apart in the source; their conditions may differ. Structures can show the parent of a compound that is named as a salt. Where two headings read alike, the source gives them in different places. Values belong to the molecule of their own block, whether it stands above or below them. Bridge positions count the residues as written; N and C are the ends. Ends that are not written are not given here. Peptide text beside a SMILES is read from it. * marks the point of attachment. Benzoyl(4-I) = O=C(c1ccc(I)cc1)*

Key:
gel filtered platelets = assay: Platelet aggregation (lumiaggregometry); format: cell-based
Experimental: Aggregation by platelets stir red (1000 rpm) at 37° C. was assayed using the Chrono-Log Lumiaggregometer. Antibody mAb3-758, mAb10-758 or mAb15-758 were added to 250 μL of 2×10^8 GFP/mL, in platelet buffer containing 2 mM CaCl, in the absence or presence of 20 μM ADP followed by the addition of 200 μg/mL fibrinogen. In some experiments PGE1, apyrase and PGI2 were included as activation inhibitors. Changes in light transmittance were recorded and transferred to Microsoft Excel for data plotting. For the determination of EC50 and IC50 of mAb3-758 and mAb10-758, respectively, control aggregations Pusing ADP alone were performed with each set of concentrations tested.

[1] = molecular target: T1, GPIIb/IIIa activation state on gel filtered platelets (Homo sapiens, UniProt P05106+P08514); assay: PAC-1 binding to gel filtered platelets; format: cell-based; conditions: PGE1, PGI2 and apyrase prior to antibody or agonist
T1 construct: Gel filtered platelets (GFP) were prepared from blood anticoagulated with 13 mM trisodium citrate; endogenous in cells; host or cells: gel filtered platelets from citrated blood
Experimental: PAC-1 (Shattil et al. (1985) J. Biol. Chem. 260, 11107-11114) binding studies were done using 20 μg/mL FITC conjugated PAC-1 (University of Pennsylvania Cell Center (Philadelphia, Pa.)) diluted in PBS. 25 μL of resting 1×10^8 GFP/mL, in flow cytometry buffer containing 1 mM CaCl, was combined with 100 nM of antibody and FITC conjugated PAC-1 to a final volume of 100 μL. The sample was incubated for 1 hour at room temperature. Following incubation the cells were diluted to 300 μL in flow cytometry buffer immediately before flow cytometry analysis. Contol PAC-1 binding to activated platelets was tested by first activating the receptors with either 1 nM thrombin or 20 μM ADP. Some samples were pretreated with activation inhibitors 100 μM PGE1, 20 μg/ml apyrase (Sigma Chemical Company (St. Louis, Mo.)) and 10 μM PGI2 (BioMol (Plymouth Meeting, Pa.)) prior to antibody addition or platelet activation with ADP or thrombin.

[2] = molecular target: T2, GPIIb/IIIa on gel filtered platelets (Homo sapiens, UniProt P05106+P08514); assay: Flow cytometry binding assay on platelets: effect of receptor occupancy or ADP activation on antibody binding; conditions: GFP pretreated with 1 μM ligand, 100 nM antibody
T2 construct: Gel filtered platelets (GFP) were prepared from blood anticoagulated with 13 mM trisodium citrate; endogenous in cells; host or cells: gel filtered platelets from citrated blood
Experimental: The platelet bound antibodies were separated from free antibodies by centrifugation in the presence of 100 μM PGE1 followed by resuspension in flow cytometry buffer containing 100 nM of FITC conjugated goat anti-mouse antibody, incubated for 1 hour at room temperature and analyzed using flow cytometry. The light scatter and fluorescence intensity of 20000 cells was collected using logarithmic gain.

[3] = molecular target: T3, purified human platelet αIIbβ3 (Homo sapiens, UniProt P05106+P08514); assay: Disassociation constants of GP IIb/IIIa antagonists on purified human αIIbβ3; format: binding
T3 construct: detergent solubilized platelet lysates were passed over a Concanavalin A-Sepharose 4B column; from tissue; host or cells: human platelets (given as outdated human plasma; platelet lysates)
Experimental: GPIIb/IIIa was purified from outdated human plasma using a slight modification of the procedure described by Kouns et al. (Kouns et al. (1992) J. Biol. Chem. 267, 18844-18851). Briefly, detergent solubilized platelet lysates were passed over a Concanavalin A-Sepharose 4B column (Sigma Chemicals, St. Louis, Mo.), followed by elution with methyl-α-D mannopyranozide (Sigma Chemical, St. Louis, Mo.). […] All fractions were analyzed for purity by SDS-PAGE electrophoresis.

[4] = activated form of purified human αIIbβ3, read-out: Activated Form KD-A
[5] = unactivated form of purified human αIIbβ3, read-out: Unactivated Form KD-B
[6] = Activated Form KD-A, activated form of purified human αIIbβ3
[7] = Unactivated Form KD-B, unactivated form of purified human αIIbβ3

T3 sequence (P08514 32-887 limits assumed): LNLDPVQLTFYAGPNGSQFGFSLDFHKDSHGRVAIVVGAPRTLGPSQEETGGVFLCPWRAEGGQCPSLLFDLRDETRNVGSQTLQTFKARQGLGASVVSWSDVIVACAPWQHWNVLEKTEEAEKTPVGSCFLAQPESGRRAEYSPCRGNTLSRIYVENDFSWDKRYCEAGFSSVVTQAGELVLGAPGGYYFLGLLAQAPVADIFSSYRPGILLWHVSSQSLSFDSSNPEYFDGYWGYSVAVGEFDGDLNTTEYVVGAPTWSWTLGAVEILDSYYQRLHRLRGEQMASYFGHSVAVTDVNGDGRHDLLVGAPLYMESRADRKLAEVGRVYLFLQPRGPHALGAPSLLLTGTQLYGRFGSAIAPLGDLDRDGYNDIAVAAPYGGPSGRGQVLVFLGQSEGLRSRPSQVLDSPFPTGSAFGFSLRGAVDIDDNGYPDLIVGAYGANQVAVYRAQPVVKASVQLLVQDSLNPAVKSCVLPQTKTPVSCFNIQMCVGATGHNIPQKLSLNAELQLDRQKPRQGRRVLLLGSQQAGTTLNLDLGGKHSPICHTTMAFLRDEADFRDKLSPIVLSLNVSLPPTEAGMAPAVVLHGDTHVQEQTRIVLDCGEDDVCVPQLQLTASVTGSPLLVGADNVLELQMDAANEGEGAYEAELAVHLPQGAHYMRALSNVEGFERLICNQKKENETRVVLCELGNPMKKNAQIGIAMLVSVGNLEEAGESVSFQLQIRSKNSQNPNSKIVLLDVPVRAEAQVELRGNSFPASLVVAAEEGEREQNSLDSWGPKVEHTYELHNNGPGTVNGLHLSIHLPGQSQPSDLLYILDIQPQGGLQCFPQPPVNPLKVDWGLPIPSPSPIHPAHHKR
T3 sequence (P08514 891-1039 partner limits assumed): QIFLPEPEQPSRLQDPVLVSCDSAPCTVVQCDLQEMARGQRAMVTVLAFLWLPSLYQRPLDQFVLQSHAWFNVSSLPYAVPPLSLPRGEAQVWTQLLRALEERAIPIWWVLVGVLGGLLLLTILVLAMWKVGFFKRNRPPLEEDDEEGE
T3 sequence (P05106 27-788): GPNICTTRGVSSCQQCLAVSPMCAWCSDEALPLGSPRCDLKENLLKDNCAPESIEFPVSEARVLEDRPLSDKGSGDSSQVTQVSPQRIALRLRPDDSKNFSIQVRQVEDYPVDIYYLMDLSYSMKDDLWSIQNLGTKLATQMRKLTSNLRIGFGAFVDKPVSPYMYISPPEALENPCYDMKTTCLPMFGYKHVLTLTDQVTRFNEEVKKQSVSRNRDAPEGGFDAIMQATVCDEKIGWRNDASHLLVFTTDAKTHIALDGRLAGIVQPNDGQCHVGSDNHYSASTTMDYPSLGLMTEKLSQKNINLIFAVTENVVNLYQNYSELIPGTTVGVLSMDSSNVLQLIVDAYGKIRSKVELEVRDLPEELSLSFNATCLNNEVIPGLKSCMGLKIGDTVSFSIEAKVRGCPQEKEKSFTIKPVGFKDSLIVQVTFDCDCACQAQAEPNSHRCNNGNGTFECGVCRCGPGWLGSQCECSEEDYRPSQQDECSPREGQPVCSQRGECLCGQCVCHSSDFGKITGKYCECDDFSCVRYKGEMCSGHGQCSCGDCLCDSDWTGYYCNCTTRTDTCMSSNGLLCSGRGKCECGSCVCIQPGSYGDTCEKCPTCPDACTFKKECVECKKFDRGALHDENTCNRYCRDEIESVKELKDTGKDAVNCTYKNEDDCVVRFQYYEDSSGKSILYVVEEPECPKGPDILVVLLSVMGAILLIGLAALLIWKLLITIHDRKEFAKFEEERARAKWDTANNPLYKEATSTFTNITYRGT
T2 sequence (P08514 32-887 limits assumed): as the sequence (P08514 32-887 limits assumed) above
T2 sequence (P08514 891-1039 partner limits assumed): as the sequence (P08514 891-1039 partner limits assumed) above
T2 sequence (P05106 27-788): as the sequence (P05106 27-788) above
T1 sequence (P08514 32-887 limits assumed): as the sequence (P08514 32-887 limits assumed) above
T1 sequence (P08514 891-1039 partner limits assumed): as the sequence (P08514 891-1039 partner limits assumed) above
T1 sequence (P05106 27-788): as the sequence (P05106 27-788) above

Kd [3, 4]: 0.96 nM
Kd [3, 5]: 6.3 nM
Molecule: N=C(N)c1ccc(C(=O)NC(Cc2ccc(O)cc2)C(=O)N2CCC(OCC(=O)O)CC2)cc1 (stereo not shown) [RO-44-9883, {1-[2-(4-carbamimidoyl-benzoylamino)3-(4-hydroxy-phenyl)propionyl]-piperidin-4-yloxy}-acetic acid]
induction of the neo-epitope recognized by anti-LIBS mAb10-758 and mAb15-758 [2]: induced; also recorded: induce the neo-epitope

Kd [3, 4]: > 100000 nM
Kd [3, 5]: > 100000 nM
Molecule: O=C(O)COc1ccc2c(c1)CN(C(=O)c1ccc(N3CCNCC3)cc1)CC2 [compound A, 4-(N-piperazine)benzoyl-(N-1,2,3,4-tetrahydroisoquinoline-7-yl)oxy-acetic acid]

Kd [3, 4]: 4.5 nM
Kd [3, 5]: 610 nM
Molecule: C[C@H](CC(=O)O)NC(=O)CN1CCC[C@@H](CCC2CCNCC2)C1=O [compound C, N-[3(R)-[2-(Piperidin-4-yl)ethyl]-2-piperidon-1-yl] acetyl-3(R)-methyl-β-alanine]

Kd [3, 4]: 0.03 nM
Kd [3, 5]: 2.4 nM
Molecule: O=C(NC[C@H](NS(=O)(=O)c1cccnc1)C(=O)O)c1cc2cc(CCC3CCNCC3)sc2s1 [compound D, 2-(S)-(3-pyridylsulfonyl)amino-3-N-[5-[2-(4-piperidinyl)ethyl]-thienothiophene-2-carboxamide]propionic acid]

The next lines start with the molecule.

Molecule: Nc1ncnc2c1ncn2[C@@H]1O[C@H](COP(=O)(O)OP(=O)(O)O)[C@@H](O)[C@H]1O [ADP]
platelet aggregation response stimulated by the substance alone (gel filtered platelets; 100 nM mAb10-758, 1 μM mAb15-758, 20 μM ADP, control platelets): 69.6%
aggregation response following incubation with fibrinogen receptor antagonist (gel filtered platelets; 10 μM of antagonist): 2.5%
EC50 (gel filtered platelets; GFP with fibrinogen, read-out: EC50 ADP stimulated platelet aggregation): 1700 nM
aggregation response of platelets pretreated with activation inhibitors (gel filtered platelets; mixture of PGE1, PGI2 and apyrase, 100 nM mAb10-758, 1 μM mAb15-758): 3.3%
aggregation response in control platelets of the antagonist experiment (gel filtered platelets; no antagonist): 69.6%
PAC-1 binding after pretreatment with activation inhibitors [1]: completely blocked

Molecule: N=C(N)NCCC[C@@H]1NC(=O)[C@@H]2CCCN2C(=O)[C@H](CC(N)=O)NC(=O)[C@@H](NC(=O)c2ccc(I)cc2)CSSC[C@@H](C(=O)O)NC(=O)[C@H](CC(=O)O)NC(=O)CNC1=O [compound B, cyclo-4-I-benzoyl-(Cys-Asn-Pro-Arg-Gly-Asp-Cys)-OH HOAc salt] ({Benzoyl(4-I)}-CNPRGDC-OH; disulfide 1-7 (inferred))
Kd [3, 6]: 1.5 nM
Kd [3, 7]: 60 nM

Molecule: ECESGPCCRNCKFLKEGTICKRARGDDMDDYCNGKTCDCPRNPHKGPAT (disulfide 2-11, 7-32, 8-37, 20-39 (inferred)) [echistatin]
Kd [3, 6]: 4.6 nM
Kd [3, 7]: 4.9 nM
